Results published in PubChem BioAssay AID1919013 (Molecular Pharmacology Branch, DTP, NCI, 2023).
pIC50: −log10 of the molar value. Where “and” joins values, the source holds several entries; their conditions need not be identical. Identical values can stand only once.

Tested on: LG0703-F498-PDC complex spheroid growth
Experiment: Anticancer human tumor LG0703-F498-PDC patient-derived lung adenocarcinoma cell line growth inhibition [AhR]
Settings: for viability, T/C: stronger effect = lower value; active = viability on the fitted dose curve at most 10% of control; inactive = the rest
How it was run: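 Agents were dosed in half-log steps down from roughly clinical Cmax, or from 10 microM where Cmax was unknown, alone and with AhR antagonists. Read-out: percent test/control growth of tumor spheroids containing HUVEC and MSC stromal cells.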

[1] = curve of first compound, second compound 0.1 µM
[2] = curve of first compound, second compound 0.316 µM
[3] = curve of first compound, second compound 1 µM
[4] = curve of first compound, second compound 3.16 µM
[5] = curve of first compound, second compound 10 µM
[6] = second compound 0.1 µM, first compound 0.0316 µM
[7] = second compound 0.1 µM, first compound 0.1 µM
[8] = second compound 0.1 µM, first compound 0.316 µM
[9] = second compound 0.1 µM, first compound 1 µM
[10] = second compound 0.1 µM, first compound 3.16 µM
[11] = second compound 0.1 µM, first compound 10 µM
[12] = second compound 0.316 µM, first compound 0.0316 µM
[13] = second compound 0.316 µM, first compound 0.1 µM
[14] = second compound 0.316 µM, first compound 0.316 µM
[15] = second compound 0.316 µM, first compound 1 µM
[16] = second compound 0.316 µM, first compound 3.16 µM
[17] = second compound 0.316 µM, first compound 10 µM
[18] = second compound 1 µM, first compound 0.0316 µM
[19] = second compound 1 µM, first compound 0.1 µM
[20] = second compound 1 µM, first compound 0.316 µM
[21] = second compound 1 µM, first compound 1 µM
[22] = second compound 1 µM, first compound 3.16 µM
[23] = second compound 1 µM, first compound 10 µM
[24] = second compound 3.16 µM, first compound 0.0316 µM
[25] = second compound 3.16 µM, first compound 0.1 µM
[26] = second compound 3.16 µM, first compound 0.316 µM
[27] = second compound 3.16 µM, first compound 1 µM
[28] = second compound 3.16 µM, first compound 3.16 µM
[29] = second compound 3.16 µM, first compound 10 µM
[30] = second compound 10 µM, first compound 0.0316 µM
[31] = second compound 10 µM, first compound 0.1 µM
[32] = second compound 10 µM, first compound 0.316 µM
[33] = second compound 10 µM, first compound 1 µM
[34] = second compound 10 µM, first compound 3.16 µM
[35] = second compound 10 µM, first compound 10 µM
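Also: luminescence taken as a proxy for viable cell amount.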
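For viability, T/C in this document: percent of DMSO vehicle control where 100% means growth equal to vehicle.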

CC1COCCN1c1cc(C2(S(C)(=N)=O)CC2)nc(-c2ccnc3[nH]ccc23)n1 (configuration not stated) + CC(CO)NC(=O)c1cc(-c2ccc(Cl)cc2)nn(-c2cnn(C)c2)c1=O
inactive: viability, T/C [6] 101% | viability, T/C [7] 91.6% | viability, T/C [8] 89.7% | viability, T/C [9] 99.3% | viability, T/C [10] 79.1% | viability, T/C [11] 63.4% | viability, T/C [12] 92.6% | viability, T/C [13] 91.7% | viability, T/C [14] 93.7% | viability, T/C [15] 90.2% | viability, T/C [16] 86% | viability, T/C [17] 53.1% | viability, T/C [18] 97.8% | viability, T/C [19] 92.8% | viability, T/C [20] 88.3% | viability, T/C [21] 91% | viability, T/C [22] 68.8% | viability, T/C [23] 60% | viability, T/C [24] 89.9% | viability, T/C [25] 89% | viability, T/C [26] 95.8% | viability, T/C [27] 82.3% | viability, T/C [28] 79.1% | viability, T/C [29] 59.1% | viability, T/C [30] 76.1% | viability, T/C [31] 95.3% | viability, T/C [32] 73.8% | viability, T/C [33] 83.7% | viability, T/C [34] 59.6% | viability, T/C [35] 51.3%
< 5.00: pIC50 [1] | pIC50 [2] | pIC50 [3] | pIC50 [4] | pIC50 [5]

CC1COCCN1c1cc(C2(S(C)(=N)=O)CC2)nc(-c2ccnc3[nH]ccc23)n1 (configuration not stated) + Cc1cncc(-c2nc(NCCc3c[nH]c4ccccc34)c3ncn(C(C)C)c3n2)c1
5.03: pIC50 [3]
> 7.50: pIC50 [4] | pIC50 [5]
< 5.00: pIC50 [1] | pIC50 [2]
active: viability, T/C [30] 1.76% | viability, T/C [31] 1.78% | viability, T/C [32] 1.04% | viability, T/C [33] 1.58% | viability, T/C [34] 0.93% | viability, T/C [35] 1.14%
inactive: viability, T/C [6] 107% | viability, T/C [7] 104% | viability, T/C [8] 92.5% | viability, T/C [9] 96.4% | viability, T/C [10] 97.2% | viability, T/C [11] 59.2% | viability, T/C [12] 92.4% | viability, T/C [13] 110% | viability, T/C [14] 105% | viability, T/C [15] 110% | viability, T/C [16] 89.7% | viability, T/C [17] 54.5% | viability, T/C [18] 107% | viability, T/C [19] 91.2% | viability, T/C [20] 101% | viability, T/C [21] 94.8% | viability, T/C [22] 89.9% | viability, T/C [23] 46.9% | viability, T/C [24] 18% | viability, T/C [25] 18.5% | viability, T/C [26] 25% | viability, T/C [27] 17.1% | viability, T/C [28] 13.5% | viability, T/C [29] 8.17%

Nc1ccn(C2OC(CO)C(O)C2(F)F)c(=O)n1 (configuration not stated) + Cc1cncc(-c2nc(NCCc3c[nH]c4ccccc34)c3ncn(C(C)C)c3n2)c1
active: viability, T/C [30] 0.88% | viability, T/C [31] 1.65% | viability, T/C [32] 1.55% | viability, T/C [33] 1.08% | viability, T/C [34] 1.14% | viability, T/C [35] 1.93%
inactive: viability, T/C [6] 40.6% | viability, T/C [7] 36.2% | viability, T/C [8] 31.3% | viability, T/C [9] 28.9% | viability, T/C [10] 28.2% | viability, T/C [11] 18.8% | viability, T/C [12] 39.7% | viability, T/C [13] 37.6% | viability, T/C [14] 35% | viability, T/C [15] 28.1% | viability, T/C [16] 26.4% | viability, T/C [17] 17.9% | viability, T/C [18] 33.5% | viability, T/C [19] 40% | viability, T/C [20] 32.2% | viability, T/C [21] 28.8% | viability, T/C [22] 24.1% | viability, T/C [23] 19.9% | viability, T/C [24] 24.4% | viability, T/C [25] 26.7% | viability, T/C [26] 29.4% | viability, T/C [27] 19.5% | viability, T/C [28] 18.1% | viability, T/C [29] 17.9%
> 7.50: pIC50 [1] | pIC50 [2] | pIC50 [3] | pIC50 [4] | pIC50 [5]

COc1cccc2c1C(=O)c1c(O)c3c(c(O)c1C2=O)CC(O)(C(=O)CO)CC3OC1CC(N)C(O)C(C)O1 (configuration not stated) + Cc1ccccc1N=Nc1ccc(NC(=O)c2ccnn2C)c(C)c1
6.24: pIC50 [4]
6.25: pIC50 [3]
inactive: viability, T/C [6] 92.4% | viability, T/C [7] 90% | viability, T/C [8] 69.9% | viability, T/C [9] 40.7% | viability, T/C [10] 11.5% | viability, T/C [12] 93.5% | viability, T/C [13] 89.7% | viability, T/C [14] 59.3% | viability, T/C [15] 38.2% | viability, T/C [16] 11.3% | viability, T/C [18] 79.1% | viability, T/C [19] 95.6% | viability, T/C [20] 64.9% | viability, T/C [21] 32.1% | viability, T/C [24] 92.5% | viability, T/C [25] 85.9% | viability, T/C [26] 67.2% | viability, T/C [27] 34.2% | viability, T/C [30] 80.8% | viability, T/C [31] 82.3% | viability, T/C [32] 69.9% | viability, T/C [33] 40.4%
active: viability, T/C [11] 0.88% | viability, T/C [17] 0.75% | viability, T/C [22] 10.6% | viability, T/C [23] 0.84% | viability, T/C [28] 8.26% | viability, T/C [29] 0.48% | viability, T/C [34] 5.43% | viability, T/C [35] 2.16%
6.26: pIC50 [2]
6.16: pIC50 [1]
6.17: pIC50 [5]

COc1ccc([C@@H](O)c2cc(-c3ncnc4cc(N5CCOCC5)ccc34)c(F)cc2Cl)nn1
5.24 and 5.23 and 5.28: pIC50 (curve of compound)
inactive: viability, T/C (compound 0.0316 µM) 97% and 89.7% and 103% | viability, T/C (compound 0.1 µM) 94.4% and 103% and 102% | viability, T/C (compound 0.316 µM) 94.6% and 103% and 100% | viability, T/C (compound 1 µM) 93.6% and 93.9% and 90% | viability, T/C (compound 3.16 µM) 75.6% and 76.3% and 67.8% | viability, T/C (compound 10 µM) 26.7% and 26.9% and 26.5%

Nc1ccccc1NC(=O)c1ccc(CNC(=O)OCc2cccnc2)cc1 + Cc1ccccc1N=Nc1ccc(NC(=O)c2ccnn2C)c(C)c1
6.03: pIC50 [4]
active: viability, T/C [11] 1.74% | viability, T/C [17] 1.58% | viability, T/C [23] 2.52% | viability, T/C [29] 3.32%
5.97: pIC50 [3]
5.94: pIC50 [1]
5.86: pIC50 [5]
6.05: pIC50 [2]
inactive: viability, T/C [6] 89.8% | viability, T/C [7] 95.3% | viability, T/C [8] 88.6% | viability, T/C [9] 54% | viability, T/C [10] 13.7% | viability, T/C [12] 103% | viability, T/C [13] 93.3% | viability, T/C [14] 78.7% | viability, T/C [15] 48.4% | viability, T/C [16] 14.3% | viability, T/C [18] 87.8% | viability, T/C [19] 78.3% | viability, T/C [20] 77.3% | viability, T/C [21] 53% | viability, T/C [22] 15.2% | viability, T/C [24] 73.9% | viability, T/C [25] 75.5% | viability, T/C [26] 69.3% | viability, T/C [27] 48% | viability, T/C [28] 20% | viability, T/C [30] 76.8% | viability, T/C [31] 88.6% | viability, T/C [32] 79.4% | viability, T/C [33] 54.3% | viability, T/C [34] 32.1% | viability, T/C [35] 10.9%
